We go through 16 compounds from US20210315893A1 (Galapagos NV, priority 2017, published 2021).

The subject of experiment [1] is HFL-1 cells. Nature of the experiment: IL8 assay in the presence of Human Serum Albumin. The note with it: HFL1, read-out: HSA IL8 EC50.
Protocol: To evaluate the influence of plasma protein binding of S1P as well as compound, the S1P induced IL-8 levelswereevaluatedin presence of Human Serum Albumin (HSA, equivalent to 40% human serum).
Human Fetal Lung cells (HFL-1) are seeded in 96 well plates in growth medium (F12K+10% heat inactivated FBS+1% Pen/strep). […] On day three, compounds are added (10 point serial dilution, 30 μM highest concentration, 1/3 dilution, 0.3% DMSO final) and plates are incubated for 1 h at 37° C., 5% CO2. Subsequently S1P at 5 μM final concentration is added and plates are incubated for 16 to 24 h at 37° C., 5% COafter which the supernatant was collected. IL-8 levels in the supernatant are determined with the IL-8 ELISA of R&D systems.
In experiment [2] the target is T1, human GPCR sphingosine 1-phosphate receptor 2 (Homo sapiens, UniProt O95136).
T1 construct: host or cells: CHO
As to the kind of experiment: S1PR2 antagonist Ca2+ flux assay. In kind it is cell-based. The note with it: antagonist mode, CHO-S1PR2 cells, S1P at EC80, Ca2+ fluorescence; read-out: S1P2 EC50 (nM), S1P2 antagonist EC50. As for the experimental part: Triggering of S1PR2 by administration of Sphingosine-1-phosphate leads to a transient increase in intracellular Ca^2+. The Ca^2+ flux assays are measuring the release of Ca^2+ intracellularly by use of a Ca^2+ sensitive fluorescent dye. The assay is firstly run in agonist mode (incubation of compounds alone) to ensure that the Ca^2+ released measured is not caused by the test compound having an agonistic effect. Then the assay is continued in antagonist mode (Sphingosine-1-Phosphate added to incubated medium containing the test compounds).
CHO cells stably overexpressing human GPCR sphingosine 1-phosphate receptor 2 (CHO-S1PR2 Perkin Elmer; ES-594-A) are seeded from a frozen stock in 384 wells sterile microplates (50 μL; 7,500 cells/well) and are incubated overnight at 37° C. and 5% CO2. The next day cells are washed twice with starvation medium (F-12 Ham's medium containing 0.1% BSA (Fatty acid free: FAF)) and left in 25 μL starvation medium for 1 h at 37° C., 5% CO2. After this starvation cells are incubated with 25 μL buffer containing the Ca^2+-sensitive fluorescent dye (0.5 mg Fluo8+125 mg Allura Red in 100 mL of 1% DMSO, in HBSS+20 mM Hepes+5 mM probenecid). The cells are incubated for an additional 1 h after which 10 μL compounds, diluted in HBSS buffer with 20 mM Hepes and 0.1% BSA (FAF), are added to the cells and intracellular Ca2+ changes are immediately measured by reading fluorescence during 3 min (FDSS/pCELL reader). The ratio of the maximal fluorescence over the background fluorescence before compound injection is used to determine compound response.
After readout of the agonist activity, the plates are incubated for 15 min at 37° C. and 5% CO2. Then, cells are stimulated with 10 μL Sphingosine-1-Phosphate (S1P) (Avanti Polar lipids-860492P) at its EC80 concentration. Intracellular Ca2+ changes are immediately measured by reading fluorescence during 3 min (FDSS/pCELL reader). The ratio of the maximal fluorescence over the background fluorescence before compound injection is used to determine compound response.
The obtained ratio's for agonist and antagonist readout were normalized versus vehicle and EC 100 of S1P ascontrols for agonist mode and versus vehicle and […]. From these normalized data EC50 of the compounds are derived.

A further experiment has as its target T2, S1PR2 (Homo sapiens, UniProt O95136).
T2 construct: expressed in transfected cells
As to the kind of experiment: S1PR2 binding assay (competition with radioactively labeled S1P, SpA). The note with it: membranes from stable cell line over expressing S1PR2, SpA beads; read-out: S1P2 EC50 (nM), S1PR2 binding EC50. The method, then: The following assay can be used for determination of S1PR2 binding. The binding assay measures the potential to compete with radioactively labeled S1P for binding to the receptor.
The assay is performed in a96 well plate where the following reagents are added. First 50 μL compound is added into the assay plate, followed by addition of 100 μL ofa mixture consisting of membrane and Scintillation proximity Assay (SpA) beads [mixture consists […] membranes derived from stable cell line over expressing SPR2, 0.5 mg/well Polyvinyltoluene-Wheat Germ-Agglutinin (PVT-WGA) beads (Perkin Elmer, RPNQOO1)]. All components are diluted in assay buffer containing 20 mM Tris pH 7.5; 10 mM MgCl2; 100 mM NaCl; 0.4% BSA FAF; 1 mM Na3VO4) and incubated for 15 min until addition to the assay plate. Subsequently, 50 ul of radioactively labeled S1P is added to the wells (Sphingosine, D-erythro-[3-3H] 1-phosphate; ARC; ART0778). After an incubation for 2 h at room temperature, plates are centrifuged at 2000 rpm during 20 min. Plates are read on a Topcount reader (Perkin Elmer) immediately after centrifugation (readout time, 1 min/well).

Experiment [3] relates to HFL-1 cells. As to the kind of experiment: IL-8 production assay (S1P induced IL-8). Conditions: Homo sapiens, HFL1; S1P (1 μM) induced IL-8 in HFL-1 cells, starvation medium without HSA; read-out: IL8 EC50. In kind it is cell-based. As for the experimental part:
This assay is designed to test inhibitory activity of compounds on S1P induced IL-8 on HFL-1 cells, ahuman fetal lung fibroblast cell line.
Human Fetal Lung cells (HFL-1) are seeded in 96 well plates in growth medium (F12K+10% heat inactivated FBS+l1% Pen/strep). After overnight incubation at 37° C., […] cells are refreshed with starvation medium without HSA (F12K+1% FBS+1% Pen/strep). On day three, compounds are added (10 point serial dilution, 30 μM highest concentration, 1/3 dilution, 0.3% DMSO final) and plates are incubated for one h at 37° C., 5% CO2. Subsequently S1P at 1 μM final concentration is added and plates are incubated for 16 to24 h at 37° C., […] after which the supermatant was collected. IL-8 levels in the supernatant are determined with the IL-8 ELISA of R&D systems.

T1 sequence (O95136 whole entry): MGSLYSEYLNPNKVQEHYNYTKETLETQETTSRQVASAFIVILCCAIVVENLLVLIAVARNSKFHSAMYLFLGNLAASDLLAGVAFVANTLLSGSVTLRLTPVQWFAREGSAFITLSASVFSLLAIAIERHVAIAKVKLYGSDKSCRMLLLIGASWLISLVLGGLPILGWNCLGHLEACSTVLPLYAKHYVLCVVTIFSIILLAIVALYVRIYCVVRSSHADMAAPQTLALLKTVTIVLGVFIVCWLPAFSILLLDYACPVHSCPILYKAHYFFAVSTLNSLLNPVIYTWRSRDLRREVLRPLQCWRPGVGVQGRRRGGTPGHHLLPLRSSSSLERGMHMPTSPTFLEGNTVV
T2 sequence (O95136 whole entry): as above

For `O=c1c2ccccc2c(Cc2nc3cc(Cl)c(OC(F)(F)F)cc3[nH]2)nn1CC1CC1` [Compound 27, 4-[[6-chloro-5-(trifluoromethoxy)-1H-benzimidazol-2-yl]methyl]-2-(cyclopropylmethyl)phthalazin-1-one], the concentration for a half-maximal effect (EC50) – broadly, the concentration at which the effect is half-maximal – in the experiment on HFL-1 cells [1] was found to be 10000 nM; in experiment [2], 868 nM; on S1PR2 it was 3900 nM; with HFL-1 cells [3], 1110 nM.

On to `COc1ccc2c(=O)n(CC(=O)N3CCOCC3)nc(Cc3nc4cc(Cl)c(OCC(F)F)cc4[nH]3)c2c1` [Compound 30, 4-[[5-chloro-6-(2,2-difluoroethoxy)-1H-benzimidazol-2-yl]methyl]-6-methoxy-2-(2-morpholino-2-oxo-ethyl)phthalazin-1-one], for which the EC50 worked out at 74.5 nM in the experiment with HFL-1 cells [1], 9.47 nM in experiment [2], 93.3 nM at S1PR2 and 13.7 nM in the experiment with HFL-1 cells [3].

`COc1ccc2c(Cc3nc4cc(Cl)c(OCC(F)F)cc4[nH]3)nn(CC(=O)N3CCOCC3)c(=O)c2c1` [Compound 31, 4-[[5-chloro-6-(2,2-difluoroethoxy)-1H-benzimidazol-2-yl]methyl]-7-methoxy-2-(2-morpholino-2-oxo-ethyl)phthalazin-1-one]: the EC50 is 72.6 nM with HFL-1 cells [1], 9.11 nM in experiment [2], 93.2 nM on S1PR2 and 11 nM in the experiment with HFL-1 cells [3].

Consider `O=C(Cn1nc(Cc2nc3cc(Cl)c(OCC(F)F)cc3[nH]2)c2ccc(N3CCOCC3)cc2c1=O)N1CCOCC1` [Compound 33, 4-[[5-chloro-6-(2,2-difluoroethoxy)-1H-benzimidazol-2-yl]methyl]-7-morpholino-2-(2-morpholino-2-oxo-ethyl)phthalazin-1-one], for which the EC50 amounted to 129 nM in the experiment with HFL-1 cells [1], 86.5 nM in experiment [2], 378 nM on S1PR2 and 15.6 nM in the experiment on HFL-1 cells [3].

On to `N#Cc1ccc2c(Cc3nc4cc(Cl)c(OCC(F)F)cc4[nH]3)nn(CC(=O)N3CCOCC3)c(=O)c2c1` [Compound 40, 1-[[5-chloro-6-(2,2-difluoroethoxy)-1H-benzimidazol-2-yl]methyl]-3-(2-morpholino-2-oxo-ethyl)-4-oxo-phthalazine-6-carbonitrile], for which the EC50 turned out to be 292 nM in the experiment on HFL-1 cells [1], 86.4 nM in experiment [2], 261 nM on S1PR2 and 145 nM in the experiment on HFL-1 cells [3].

As for `CS(=O)(=O)c1ccc2c(=O)n(CC(=O)N3CCOCC3)nc(Cc3nc4cc(Cl)c(OCC(F)F)cc4[nH]3)c2c1` [Compound 41, 4-[[5-chloro-6-(2,2-difluoroethoxy)-1H-benzimidazol-2-yl]methyl]-6-methylsulfonyl-2-(2-morpholino-2-oxo-ethyl)phthalazin-1-one], the EC50 worked out at 2780 nM in the experiment with HFL-1 cells [1], 1050 nM in experiment [2], 1310 nM on S1PR2 and 685 nM with HFL-1 cells [3].

As for `O=C(O)C1(Cn2nc(Cc3nc4cc(Cl)c(OC(F)(F)F)cc4[nH]3)c3ccccc3c2=O)CC1` [Compound 47, 1-[[4-[[5-chloro-6-(trifluoromethoxy)-1H-benzimidazol-2-yl]methyl]-1-oxo-phthalazin-2-yl]methyl]cyclopropanecarboxylic acid], the half-maximal effective concentration (EC50) in the experiment on HFL-1 cells [1] amounted to 10000 nM; in experiment [2], 2240 nM; on S1PR2, 4520 nM; with HFL-1 cells [3], 1360 nM.

`CC(C)(C)COc1cc2[nH]c(Cc3nn(CC(=O)N4CCOCC4)c(=O)c4ccccc34)nc2cc1Cl` [Compound 160, 4-[[5-chloro-6-(2,2-dimethylpropoxy)-1H-benzimidazol-2-yl]methyl]-2-(2-morpholino-2-oxo-ethyl)phthalazin-1-one]: the values for the concentration giving a half-maximal response (EC50) (in the experiment on HFL-1 cells [1]; in experiment [2]; with HFL-1 cells [3]) were 1050 nM, 47.9 nM and 133 nM, respectively.

On to `CCOc1cc2[nH]c(Cc3nn(CC(=O)N4CCOCC4)c(=O)c4ccccc34)nc2cc1Cl` [Compound 165, 4-[(5-chloro-6-ethoxy-1H-benzimidazol-2-yl)methyl]-2-(2-morpholino-2-oxo-ethyl)phthalazin-1-one], for which the results for the EC50 with HFL-1 cells [1] and with HFL-1 cells [3] were 79.9 nM and 4.65 nM, respectively.

As for `CC(C)COc1cc2[nH]c(Cc3nn(CC(=O)N4CCOCC4)c(=O)c4ccccc34)nc2cc1Cl` [Compound 173, 4-[(5-chloro-6-isobutoxy-1H-benzimidazol-2-yl)methyl]-2-(2-morpholino-2-oxo-ethyl)phthalazin-1-one], the EC50 in the experiment with HFL-1 cells [1] amounted to 3.47 nM; in experiment [2], 16 nM; with HFL-1 cells [3], 2.4 nM.

As to `N#Cc1cc2[nH]c(Cc3nn(CC(=O)N4CC(O)(C5CC5)C4)c(=O)c4ccccc34)nc2cc1OCC(F)F` [Compound 215, 2-[[3-[2-(3-cyclopropyl-3-hydroxy-azetidin-1-yl)-2-oxo-ethyl]-4-oxo-phthalazin-1-yl)methyl]-6-(2,2-difluoroethoxy)-3H-benzimidazole-5-carbonitrile], the EC50 in the experiment with HFL-1 cells [1] was 112 nM; in experiment [2] it was 120 nM; in the experiment with HFL-1 cells [3], 200 nM.

On to `CS(=O)(=O)NC(=O)Cn1nc(Cc2nc3cc(OCC(F)F)c(Cl)cc3[nH]2)c2cc(C#N)ccc2c1=O` [Compound 245, 2-[4-[[6-chloro-5-(2,2-difluoroethoxy)-1H-benzimidazol-2-yl]methyl]-6-cyano-1-oxo-phthalazin-2-yl]-N-methylsulfonyl-acetamide], for which the results for the EC50 (in experiment [2]; on S1PR2) were 14.3 nM and 609 nM, respectively.

Turning to `CC(C(=O)NS(C)(=O)=O)n1nc(Cc2nc3cc(OCC4CC4)c(Cl)cc3[nH]2)c2ccccc2c1=O` (centres unmarked) [Compound 246, N-{2-[4-(6-Chloro-5-cyclopropylmethoxy-1H-benzoimidazol-2-ylmethvl)-1-oxo-1H-phthalazin-2-yl]-propionyl}-methanesulfonamide], the values for the half-maximal effective concentration (EC50) (in experiment [2]; on S1PR2) were 13.6 nM and 775 nM, respectively.

Turning to `CCOc1cc2nc(Cc3nn(CC(=O)NS(C)(=O)=O)c(=O)c4ccccc34)[nH]c2cc1F` [Compound 247, 2-[4-[(5-ethoxy-6-fluoro-1H-benzimidazol-2-yl)methyl]-1-oxo-phthalazin-2-yl]-N-methylsulfonyl-acetamide], the figures for the concentration giving a half-maximal response (EC50) (in experiment [2]; at S1PR2) were 87.9 nM and 2470 nM, respectively.

As for `N#Cc1cc2nc(Cc3nn(CC(=O)N4CCOCC4)c(=O)c4ccccc34)cn2cc1OCC(F)F` [Compound 256, 6-(2,2-difluoroethoxy)-2-[[3-(2-morpholino-2-oxo-ethyl)-4-oxo-phthalazin-1-yl]methyl]imidazo[1,2-a]pyridine-7-carbonitrile], the EC50 in the experiment on HFL-1 cells [1] was found to be 2350 nM; in experiment [2], 11600 nM; in the experiment with HFL-1 cells [3] it was 2660 nM.

Consider `CCOc1cc2[nH]c(Cc3nn(CC(=O)O)c(=O)c4ccccc34)nc2cc1Cl` [compound 6, 2-[4-[(5-chloro-6-ethoxy-1H-benzimidazol-2-yl)methyl]-1-oxo-phthalazin-2-yl]acetic acid], for which the EC50 in the experiment with HFL-1 cells [1] came out at 57.2 nM; in the experiment on HFL-1 cells [3] it was 12.4 nM.
